In test [1] the target is T1, active p38 alpha enzyme (Upstate Biotechnology) (Homo sapiens, UniProt Q16539).
T1 construct: purchased Upstate Biotechnology
Kind of test: p38α biochemical assay (ATP turnover, luminescent detection, Cambrex PKlight). The following applies: Table 1 Biological Activity. In a few lines: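 In this kinase reaction, p38α used MapkapK2 as phosphorylation substrate at low ATP (1.4 uM final) over 2 hours at 30C, and activity was followed as ATP turnover by luminescence.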

In another test the test system is TNF-α production. The test is described as follows: TNF-α production by LPS-stimulated rats (ELISA). The format is in vivo, Male Lewis rats. The following applies: rat, −1 hr before LPS; for inhibition at 30 mg/kg / inhibition at 10 mg/kg: read-out: LPS Induced TNF alpha (−1 hr) In Vivo (+) = >15% Inhibition (−) = ≦15% Inhibition; for ED50: oral dosing, read-out: LPS Induced TNF alpha (−1 hr) In Vivo (+) = ED50 ≦ 10 (−) = ED50 > 10. As to the method: TNF-α Production by LPS-Stimulated Mice
Male Lewis rats (180-200 g) were injected intraperitoneally with lipopolysaccharide (LPS) (50 μg/kg of E. coli strain 0111:B4, Sigma) suspended in sterile saline. Ninety minutes later, mice were sedated by CO2:O2 inhalation and a blood sample was obtained. Serum was separated and analyzed for TNF-α concentrations by commercial ELISA assay per the manufacturer's instructions (R&D Bioscience). Test compounds were administered orally at various times before LPS injection. The compounds were dosed either as suspensions or as solutions in various vehicles or solubilizing agents.
Compounds were dosed 0.5 to 3 hours before LPS stimulation. Rats were anaesthetized with Isofluor and injected i.v. with 0.3 mg/kg of LPS* in a volume of 0.3 ml sterile saline. Ninety minutes after the LPS injection, blood samples were collected into heparin tubes for preparation of plasma samples. Repression of TNFα production is assessed by commercial ELISA and reported below in Table 2.
(In general: An ELISA detects its analyte on a solid surface through an enzyme-linked reagent.)

Some results are limits rather than exact numbers.

T1 sequence (Q16539 whole entry): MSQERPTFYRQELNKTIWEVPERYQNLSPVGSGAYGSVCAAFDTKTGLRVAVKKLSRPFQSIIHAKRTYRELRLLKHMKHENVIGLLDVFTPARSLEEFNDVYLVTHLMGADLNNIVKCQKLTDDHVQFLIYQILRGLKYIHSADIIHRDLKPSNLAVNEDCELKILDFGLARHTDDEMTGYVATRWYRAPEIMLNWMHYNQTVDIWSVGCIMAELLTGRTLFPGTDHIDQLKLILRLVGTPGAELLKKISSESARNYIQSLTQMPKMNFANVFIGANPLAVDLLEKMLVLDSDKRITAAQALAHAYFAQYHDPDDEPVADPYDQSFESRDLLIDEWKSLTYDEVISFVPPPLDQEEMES

For the compound `Cc1onc(-c2ccccc2)c1-c1ccn(C(=O)NC(C)C)n1` [Example 1, 3-(5-Methyl-3-phenyl-isoxazol-4-yl)pyrazole-1-carboxylic acid isopropylamide], in test [1] (p38α biochemical assay), the IC50 – broadly, the concentration that inhibits the measured activity by half – was not above 1000 nM. The inhibition (in general, the relative decrease from the control value, in per cent) at 30 mg/kg with TNF-α production was more than 15%.

Turning to `Cc1onc(-c2ccc(F)cc2F)c1-c1ccn(C(=O)NC(C)C)n1` [Example 17, 3-|3-(2,4-Difluoro-phenyl)-5-methyl-isoxazol-4-yl|-pyrazole-1-carboxylic acid isopropylamide], the IC50 in test [1] (p38α biochemical assay) is not above 1000 nM. Also, in the test on TNF-α production, the inhibition at 30 mg/kg was more than 15%.

Turning to `Cc1onc(-c2ccc(F)cc2)c1-c1ccn(C(=O)NC(C)C)n1` [Example 18, 3-|3-(4-Fluoro-phenyl)-5-methyl-isoxazol-4-yl|-pyrazole-1-carboxylic acid isopropylamide], the concentration for half-maximal inhibition (IC50) in test [1] (p38α biochemical assay) is not above 1000 nM. The inhibition at 30 mg/kg in the test on TNF-α production was more than 15%.

As to `CC(C)NC(=O)n1ccc(-c2c(-c3ccc(F)cc3)noc2CN2CCOCC2)n1` [Example 26, 3-|3-(4-Fluoro-phenyl)-5-morpholin-4-ylmethyl-isoxazol-4-yl|-pyrazole-1-carboxylic acid isopropylamide], the IC50 in test [1] (p38α biochemical assay) was not above 1000 nM. Further, in the test on TNF-α production, the inhibition at 10 mg/kg is more than 15% and the median effective dose (ED50) (as a rule, the dose at which the effect has come halfway, by size or by number of responders) is not above 10 mg/kg.

Compound `Cc1onc(-c2ccc(F)cc2)c1-c1nc(C(=O)NC(C)C)cs1` [Example 27, 2-|3-(4-Fluoro-phenyl)-5-methyl-isoxazol-4-yl|-thiazole-4-carboxylic acid isopropylamide] returned an IC50 in test [1] (p38α biochemical assay) not above 1000 nM. Besides, in the test on TNF-α production, the inhibition at 10 mg/kg is more than 15% and the median effective dose (ED50) is more than 10 mg/kg.

As to `CC(C)NC(=O)c1csc(-c2c(-c3ccc(F)cc3)noc2C2CCNCC2)n1` [Example 35, 2-|3-(4-Fluoro-phenyl)-5-piperidin-4-yl-isoxazol-4-yl|-thiazole-4-carboxylic acid isopropylamide], the IC50 in test [1] (p38α biochemical assay) is not above 1000 nM. For the same compound, in the test with TNF-α production, the inhibition at 10 mg/kg is not above 15%.

As for `Cc1nc(-c2ccc(F)cc2)c(-c2nc(C(=O)NC(C)C)cs2)o1` [Example 38], the 50% inhibitory concentration (IC50) in test [1] (p38α biochemical assay) was not above 1000 nM. In the test on TNF-α production, the inhibition at 10 mg/kg is more than 15% and the ED50 was not above 10 mg/kg.

In test [1] (p38α biochemical assay), `CC(C)NC(=O)c1csc(-c2oc(CN3CCOCC3)nc2-c2ccc(F)cc2)n1` [Example 41, 2-|4-(4-Fluoro-phenyl)-2-morpholin-4-ylmethyl-oxazol-5-yl|-thiazole-4-carboxylic acid isopropylamide] gave a 50% inhibitory concentration (IC50) not above 1000 nM. Besides, in the test with TNF-α production, the inhibition at 10 mg/kg was more than 15%.

As to `CC(C)NC(=O)c1csc(-c2oc(CN3CCNCC3)nc2-c2ccc(F)cc2)n1` [Example 44, 2-|4-(4-Fluoro-phenyl)-2-piperazin-1-ylmethyl-oxazol-5-yl|-thiazole-4-carboxylic acid isopropylamide], the IC50 in test [1] (p38α biochemical assay) was not above 1000 nM. Moreover, the inhibition at 10 mg/kg in the test on TNF-α production is not above 15%.

In turn, `Cc1nc(-c2ccc(F)cc2)c(-c2nc(C(=O)NC(C)C)cs2)s1` [Example 46, 4′-(4-Fluoro-phenyl)-2′-methyl-|2,5′|bithiazolyl-4-carboxylic acid isopropylamide] gave a half-maximal inhibitory concentration (IC50) in test [1] (p38α biochemical assay) not above 1000 nM. In addition, in the test on TNF-α production, the inhibition at 30 mg/kg is more than 15%.

In test [1] (p38α biochemical assay), `CC(C)NC(=O)c1csc(-c2c(-c3ccc(F)cc3)n[nH]c2C2CCN(C(=O)CO)CC2)n1` [Example 62, 2-{3-(4-Fluoro-phenyl)-5-|1-(2-hydroxy-acetyl)-piperidin-4-yl|-1H-pyrazol-4-yl}thiazole-4-carboxylic acid isopropylamide] came in with a concentration for half-maximal inhibition (IC50) not above 1000 nM. In addition, the inhibition at 10 mg/kg in the test with TNF-α production was more than 15%.

On to `CCNC(=O)c1csc(-c2c(-c3ccc(F)cc3)n[nH]c2C2CCN(C(=O)CO)CC2)n1` [Example 64, 2-{3-(4-Fluoro-phenyl)-5-|1-(2-hydroxy-acetyl)-piperidin-4-yl|-1H-pyrazol-4-yl}-thiazole-4-carboxylic acid ethylamide], for which the 50% inhibitory concentration (IC50) in test [1] (p38α biochemical assay) is not above 1000 nM. Besides, the inhibition at 10 mg/kg in the test with TNF-α production is not above 15%.

For `C#CCNC(=O)c1csc(-c2c(-c3ccc(F)cc3)n[nH]c2C2CCN(C(=O)CO)CC2)n1` [Example 66, 2-{3-(4-Fluoro-phenyl)-5-|1-(2-hydroxy-acetyl)-piperidin-4-yl|-1H-pyrazol-4-yl}-thiazole-4-carboxylic acid prop-2-ynylamide], the 50% inhibitory concentration (IC50) in test [1] (p38α biochemical assay) is not above 1000 nM. In addition, the inhibition at 10 mg/kg in the test on TNF-α production is not above 15%.

`O=C(NCc1cccnc1)c1csc(-c2c(-c3ccc(F)cc3)n[nH]c2C2CCN(C(=O)CO)CC2)n1` [Example 68, 2-{3-(4-Fluoro-phenyl)-5-|1-(2-hydroxy-acetyl)-piperidin-4-yl|-1H-pyrazol-4-yl}thiazole-4-carboxylic acid (pyridin-3-ylmethyl)-amide] gave a concentration for half-maximal inhibition (IC50) in test [1] (p38α biochemical assay) not above 1000 nM. The inhibition at 10 mg/kg in the test on TNF-α production is more than 15%.

The compound `CONC(=O)c1csc(-c2c(-c3ccc(F)cc3)n[nH]c2C2CCNCC2)n1` [Example 71, 2-|3-(4-Fluoro-phenyl)-5-piperidin-4-yl-1H-pyrazol-4-yl|-thiazole-4-carboxylic acid methoxy-amide] displayed an IC50 in test [1] (p38α biochemical assay) not above 1000 nM. For the same compound, the inhibition at 10 mg/kg with TNF-α production is not above 15%.

In test [1] (p38α biochemical assay), `Cc1[nH]nc(-c2ccc(F)cc2)c1-c1nc(C(=O)NCC2CC2)cs1` [Example 73, 2-|3-(4-Fluoro-phenyl)-5-methyl-1H-pyrazol-4-yl|-thiazole-4-carboxylic acid cyclopropylmethyl-amide] came in with a 50% inhibitory concentration (IC50) not above 1000 nM. The inhibition at 10 mg/kg with TNF-α production was not above 15%.

In the case of `C#CCNC(=O)c1csc(-c2c(-c3ccc(F)cc3)n[nH]c2C)n1` [Example 78, 2-|3-(4-Fluoro-phenyl)-5-methyl-1H-pyrazol-4-yl|-thiazole-4-carboxylic acid prop-2-ynylamide], the IC50 in test [1] (p38α biochemical assay) is not above 1000 nM. The inhibition at 10 mg/kg with TNF-α production is not above 15%.

Turning to `CC(C)NC(=O)c1csc(-c2c(-c3ccc(F)cc3)ncn2C2CCNCC2)n1` [Example 91, 2-|5-(4-Fluoro-phenyl)-3-piperidin-4-yl-3H-imidazol-4-yl|-thiazole-4-carboxylic acid isopropylamide], in test [1] (p38α biochemical assay), the IC50 is not above 1000 nM. Also, the inhibition at 10 mg/kg in the test on TNF-α production was more than 15%.

With `CC(C)NC(=O)c1csc(-c2c(-c3ccc(F)cc3)ncn2C2CCN(C(=O)CO)CC2)n1` [Example 93, 2-{5-(4-Fluoro-phenyl)-3-|1-(2-hydroxy-acetyl)-piperidin-4-yl|-3H-imidazol-4-yl}-thiazole-4-carboxylic acid isopropylamide], the half-maximal inhibitory concentration (IC50) in test [1] (p38α biochemical assay) was not above 1000 nM. In addition, the inhibition at 10 mg/kg in the test with TNF-α production was more than 15%.

`CC(C)NC(=O)c1csc(-c2c(-c3ccc(F)cc3)n[nH]c2C2CCNCC2)n1` [Example 811] returned a concentration for half-maximal inhibition (IC50) in test [1] (p38α kinase) not above 1000 nM. Moreover, the inhibition at 10 mg/kg with TNF-α production is more than 15%.

Compound `CCNC(=O)c1csc(-c2c(-c3ccc(F)cc3)n[nH]c2C2CCNCC2)n1` [Example 2026] yielded a 50% inhibitory concentration (IC50) in test [1] (p38α kinase) not above 1000 nM. Moreover, the inhibition at 10 mg/kg with TNF-α production was more than 15%.

In turn, `C#CCNC(=O)c1csc(-c2c(-c3ccc(F)cc3)n[nH]c2C2CCNCC2)n1` [Example 2027] returned a 50% inhibitory concentration (IC50) in test [1] (p38α kinase) not above 1000 nM. Moreover, the inhibition at 10 mg/kg with TNF-α production was more than 15%.

`O=C(NCc1cccnc1)c1csc(-c2c(-c3ccc(F)cc3)n[nH]c2C2CCNCC2)n1` [Example 2028] had an IC50 in test [1] (p38α kinase) not above 1000 nM. For the same compound, the inhibition at 10 mg/kg with TNF-α production is not above 15%.
